Test [1] has as its system NCI-H1299. Description: Antiproliferative activity against human NCI-H1299 cells after 48 hrs by MTS assay. To be noted: NCI-H1299, 48 h. The class given is functional, cell-based.
For test [2], the target named is T1, Dihydrofolate reductase (Homo sapiens, UniProt P00374).
T1 sequence (P00374 whole entry): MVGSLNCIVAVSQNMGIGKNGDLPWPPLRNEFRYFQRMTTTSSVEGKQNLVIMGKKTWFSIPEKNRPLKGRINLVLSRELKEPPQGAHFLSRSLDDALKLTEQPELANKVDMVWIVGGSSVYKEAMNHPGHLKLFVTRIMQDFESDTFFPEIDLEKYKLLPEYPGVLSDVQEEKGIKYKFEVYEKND
Description: Inhibition of recombinant human DHFR using dihydrofolate as substrate after 15 mins in presence of NADPH.

For test [3], the system named is HeLa. The test can be described thus: cells. To be noted: Homo sapiens, 48 h.
Description: Antiproliferative activity against human HeLa cells after 48 hrs by MTS assay
Test [4] deals with HL-60. Description: Antiproliferative activity against human HL60 cells after 48 hrs by MTS assay. In kind it is functional, cell-based. Conditions: HL-60, 48 h. A general note: Tetrazolium assays rely on reduction of a dye to a coloured formazan, in cell work by metabolically active cells.
Test [5] has as its system A549. The test can be described thus: Antiproliferative activity against human A549 cells after 48 hrs by MTS assay. The class given is functional, cell-based. To be noted: A549, 48 h.
Test [6] has as its system HL-60. Description: Cell cycle arrest in human HL60 cells assessed as G1 phase at 0.1 uM after 24 hrs by propidium iodide staining based flow cytometry (reference value: 29.1 +/- 0.5%). In kind it is functional. (In general: A flow cytometer gives signals particle by particle.)
Test [7] relates to HL-60. The test can be described thus: Cell cycle arrest in human HL60 cells assessed as G2/M phase at 0.4 uM after 24 hrs by propidium iodide staining based flow cytometry (reference value: 12.2 +/- 1.1%). The class given is functional.
Test [8] concerns HL-60. Description: Cell cycle arrest in human HL60 cells assessed as G1 phase at 0.05 uM after 24 hrs by propidium iodide staining based flow cytometry (reference value: 29.1 +/- 0.5%). The class given is functional.
The test system of test [9] is HL-60. Description: Cell cycle arrest in human HL60 cells assessed as G1 phase at 0.2 uM after 24 hrs by propidium iodide staining based flow cytometry (reference value: 29.1 +/- 0.5%). In kind it is functional.
Test [10] relates to HL-60. The test can be described thus: Cell cycle arrest in human HL60 cells assessed as S phase at 0.8 uM after 24 hrs by propidium iodide staining based flow cytometry (reference value: 58.7 +/- 0.8%). The class given is functional.
Test [11] relates to HL-60. Description: Cell cycle arrest in human HL60 cells assessed as G2/M phase at 0.8 uM after 24 hrs by propidium iodide staining based flow cytometry (reference value: 12.2 +/- 1.1%). In kind it is functional.
Test [12] has as its system HL-60. The test can be described thus: Cell cycle arrest in human HL60 cells assessed as G1 phase at 0.4 uM after 24 hrs by propidium iodide staining based flow cytometry (reference value: 29.1 +/- 0.5%). In kind it is functional.
For test [13], the system named is HL-60. The test can be described thus: Cell cycle arrest in human HL60 cells assessed as G2/M phase at 0.1 uM after 24 hrs by propidium iodide staining based flow cytometry (reference value: 12.2 +/- 1.1%). In kind it is functional.
For test [14], the system named is HL-60. Description: Cell cycle arrest in human HL60 cells assessed as S phase at 0.1 uM after 24 hrs by propidium iodide staining based flow cytometry (reference value: 58.7 +/- 0.8%). The class given is functional.
Test [15] deals with HL-60. Description: Cell cycle arrest in human HL60 cells assessed as S phase at 0.2 uM after 24 hrs by propidium iodide staining based flow cytometry (reference value: 58.7 +/- 0.8%). The class given is functional.
The subject of test [16] is HL-60. Description: Cell cycle arrest in human HL60 cells assessed as G2/M phase at 0.05 uM after 24 hrs by propidium iodide staining based flow cytometry (reference value: 12.2 +/- 1.1%). The class given is functional.
In test [17] the test system is HL-60. Description: Cell cycle arrest in human HL60 cells assessed as G2/M phase at 0.2 uM after 24 hrs by propidium iodide staining based flow cytometry (reference value: 12.2 +/- 1.1%). The class given is functional.
Test [18] deals with HL-60. The test can be described thus: Cell cycle arrest in human HL60 cells assessed as S phase at 0.05 uM after 24 hrs by propidium iodide staining based flow cytometry (reference value: 58.7 +/- 0.8%). In kind it is functional.
The test system of test [19] is HL-60. The test can be described thus: Cell cycle arrest in human HL60 cells assessed as G1 phase at 0.8 uM after 24 hrs by propidium iodide staining based flow cytometry (reference value: 29.1 +/- 0.5%). The class given is functional.
Test [20] has as its system HL-60. Description: Cell cycle arrest in human HL60 cells assessed as S phase at 0.4 uM after 24 hrs by propidium iodide staining based flow cytometry (reference value: 58.7 +/- 0.8%). In kind it is functional.

`Nc1nc(N)c2nc(CCc3ccc(Br)cc3)ccc2n1`: the concentration for half-maximal inhibition (IC50) – broadly, the midpoint of a concentration-inhibition curve – in [1] stood at 1.49 µM; in test [2], 1.26 µM; in [3], 4.3 µM; in [4], 0.12 µM; in test [5] it was 22.6 µM.
As to `COc1cccc(CCc2ccc3nc(N)nc(N)c3n2)c1`, the IC50 in [1] stood at 7.03 µM; in test [2], 0.45 µM; in test [3], 14.3 µM; in test [4], 0.42 µM; in test [5], 14.4 µM.
Turning to `Nc1nc(N)c2nc(/C=C/c3ccc(Cl)cc3)ccc2n1`, the IC50 in test [1] turned out to be 9.39 µM; in test [2], 16.9 µM; in test [3], 7.6 µM; in test [4], 3.8 µM; in [5] it was 8.17 µM.
Consider `Nc1nc(N)c2nc(CCc3ccccc3)ccc2n1`, for which the half-maximal inhibitory concentration (IC50) was found to be 9.16 µM in test [1]; 2.25 µM in [2]; 8.61 µM in [3]; 0.36 µM in test [4]; 9.78 µM in [5].
Take `Nc1nc(N)c2nc(/C=C/c3ccccc3)ccc2n1`: the half-maximal inhibitory concentration (IC50) worked out at 15.2 µM in test [1]; 5.33 µM in [2]; 13.4 µM in [3]; 3.85 µM in [4]; 13.9 µM in test [5].
`CC(C)c1ccc(CCc2ccc3nc(N)nc(N)c3n2)cc1`: the 50% inhibitory concentration (IC50) in [2] turned out to be 19 µM; in test [3], 14 µM; in [4], 0.49 µM; in test [5], 15.9 µM.
As for `Nc1nc(N)c2nc(/C=C/c3ccc(Br)cc3)ccc2n1`, the IC50 in [1] was determined as 6.19 µM; in test [2], 14.8 µM; in test [3] it was 9.2 µM; in test [4] it was 2.51 µM; in [5], 11.9 µM.
Turning to `COc1cc(CCc2ccc3nc(N)nc(N)c3n2)cc(OC)c1OC`, the Activity in test [6] is on record as 25.7%; in test [7], 4.4%; in [8], 26.3%; in [9], 20.2%; in test [10], 88.5%; in test [11], 1.5%. Further, the Activity was found to be 18% in test [12]; 10% in test [13]; 64.3% in test [14]; 73.2% in [15]; 10.7% in test [16]; 6.6% in [17]. The Activity came to 63% in [18], 10% in test [19] and 77.6% in test [20]. Besides, the IC50 in [1] stood at 2.17 µM; in test [2], 0.29 µM; in [3], 2.9 µM; in test [4], 0.42 µM; in test [5], 11.6 µM.
As for `COc1ccccc1/C=C/c1ccc2nc(N)nc(N)c2n1`, the IC50 in test [1] was 8.63 µM; in test [2], 3.61 µM; in [3], 13.8 µM; in test [4], 3.6 µM; in test [5], 7.56 µM.
On the same counts, the results for `CCc1ccc(/C=C/c2ccc3nc(N)nc(N)c3n2)cc1` are 4.86 µM, 5.28 µM, 9.86 µM, 1.19 µM and 9.13 µM.
Take `Cc1ccc(CCc2ccc3nc(N)nc(N)c3n2)cc1`: the IC50 in test [1] was found to be 1.61 µM; in test [2], 2.55 µM; in test [3], 52.4 µM; in test [4], 0.31 µM; in [5], 34.1 µM.
Consider `Nc1nc(N)c2nc(CCc3ccc(Cl)cc3)ccc2n1`, for which the concentration for half-maximal inhibition (IC50) in [1] is 1.06 µM; in [2] it was 2.84 µM; in test [3], 5.3 µM; in test [4] it was 0.27 µM; in [5] it was 16.3 µM.
Consider `Nc1nc(N)c2nc(/C=C/c3ccc(F)cc3)ccc2n1`, for which the half-maximal inhibitory concentration (IC50) turned out to be 5.99 µM in test [1]; 4.78 µM in test [2]; 7.98 µM in [3]; 2.61 µM in [4]; 6.78 µM in test [5].
Turning to `COc1cc(/C=C/c2ccc3nc(N)nc(N)c3n2)cc(OC)c1OC`, the IC50 in [1] worked out at 3.99 µM; in test [2] it was 4 µM; in test [3] it was 2.1 µM; in [4], 2.33 µM; in [5] it was 5.34 µM.
Consider `COc1ccc(CCc2ccc3nc(N)nc(N)c3n2)cc1`, for which the 50% inhibitory concentration (IC50) in [1] came out at 2.15 µM; in test [2], 0.71 µM; in [3], 10.5 µM; in [4] it was 0.072 µM; in test [5], 18 µM.
For the compound `Cc1ccc(/C=C/c2ccc3nc(N)nc(N)c3n2)cc1`, the half-maximal inhibitory concentration (IC50) in test [2] came out at 3.19 µM; in [3] it was 14.5 µM; in [4], 4.54 µM; in test [5] it was 18.9 µM.
`COc1cccc(/C=C/c2ccc3nc(N)nc(N)c3n2)c1`: the IC50 in test [1] is 12.2 µM; in test [2] it was 4.13 µM; in test [3], 18.8 µM; in [4], 2.03 µM; in test [5], 9.1 µM.
Take `Nc1nc(N)c2nc(CCc3ccc(F)cc3)ccc2n1`: the half-maximal inhibitory concentration (IC50) is 14.8 µM in test [1]; 0.95 µM in [2]; 54 µM in test [3]; 0.58 µM in [4]; 4.98 µM in test [5].
Consider `COc1ccc(/C=C/c2ccc3nc(N)nc(N)c3n2)cc1`, for which the IC50 was 3.73 µM in test [1]; 4.34 µM in test [2]; 6.5 µM in test [3]; 1.63 µM in [4]; 5.68 µM in [5].
For the compound `COc1ccccc1CCc1ccc2nc(N)nc(N)c2n1`, the IC50 in test [1] is 4.73 µM; in test [2], 1.67 µM; in test [3], 10.4 µM; in test [4], 0.8 µM; in [5], 29.9 µM.
In the case of `CC(C)c1ccc(/C=C/c2ccc3nc(N)nc(N)c3n2)cc1`, the IC50 in [1] came to 11.2 µM; in [2] it was 20.1 µM; in [3], 10.5 µM; in test [4], 1.04 µM; in [5], 10.7 µM.
For `CCc1ccc(CCc2ccc3nc(N)nc(N)c3n2)cc1`, the IC50 worked out at 2.76 µM in [1]; 2.48 µM in test [2]; 49.4 µM in test [3]; 0.21 µM in test [4]; 15.4 µM in test [5].
Consider `O=c1[nH]cc(F)c(=O)[nH]1` [FLUOROURACIL], for which the figures for the IC50 in test [1], in test [3] and in [4] were 8.91 µM, 62.2 µM and 1.62 µM, respectively.

Values taken from ChEMBL document CHEMBL4004829, “Synthesis and antiproliferative activity of a series of novel 6-substituted pyrido[3,2-d]pyrimidines as potential nonclassical lipophilic antifolates targeting dihydrofolate reductase” (Eur J Med Chem, 2017).
